Test results reported in ChEMBL document CHEMBL4507264, “Data for DCP probe BAY-7598” (2021).

Assays:
[1] = test system: Tyrosine-protein kinase ABL1 (Homo sapiens), P00519 [E255K]; details: Compound concentration 1000.0 nM
[2] = test system: Tyrosine-protein kinase ABL1 (Homo sapiens), P00519 [Q252H]; details: Compound concentration 1000.0 nM
[3] = biological target: Activin receptor type-2A (Homo sapiens) (UniProt P27037); details: Compound concentration 1000.0 nM
[4] = biological target: Activin receptor type-2B (Homo sapiens) (UniProt Q13705); details: Compound concentration 1000.0 nM
[5] = biological target: ALK tyrosine kinase receptor (Homo sapiens) (UniProt Q9UM73); details: Compound concentration 1000.0 nM
[6] = biological target: Aurora kinase B (Homo sapiens) (UniProt Q96GD4); details: Compound concentration 1000.0 nM
[7] = biological target: Peripheral plasma membrane protein CASK (Homo sapiens) (UniProt O14936); details: Compound concentration 1000.0 nM
[8] = biological target: Cyclin-dependent kinase 19 (Homo sapiens) (UniProt Q9BWU1); details: Compound concentration 1000.0 nM
[9] = biological target: Cyclin-dependent kinase 5 (Homo sapiens) (UniProt Q00535); details: Compound concentration 1000.0 nM
[10] = biological target: Cyclin-dependent kinase 9 (Homo sapiens) (UniProt P50750); details: Compound concentration 1000.0 nM
[11] = biological target: Macrophage colony-stimulating factor 1 receptor (Homo sapiens) (UniProt P07333); details: Compound concentration 1000.0 nM
[12] = biological target: Casein kinase I isoform delta (Homo sapiens) (UniProt P48730); details: Compound concentration 1000.0 nM
[13] = biological target: Megakaryocyte-associated tyrosine-protein kinase (Homo sapiens) (UniProt P42679); details: Compound concentration 1000.0 nM
[14] = biological target: Death-associated protein kinase 1 (Homo sapiens) (UniProt P53355); details: Compound concentration 1000.0 nM
[15] = biological target: Serine/threonine-protein kinase DCLK2 (Homo sapiens) (UniProt Q8N568); details: Compound concentration 1000.0 nM
[16] = biological target: Serine/threonine-protein kinase 17A (Homo sapiens) (UniProt Q9UEE5); details: Compound concentration 1000.0 nM
[17] = biological target: Serine/threonine-protein kinase 17B (Homo sapiens) (UniProt O94768); details: Compound concentration 1000.0 nM
[18] = biological target: Dual specificity tyrosine-phosphorylation-regulated kinase 1A (Homo sapiens) (UniProt Q13627); details: Compound concentration 1000.0 nM
[19] = test system: Epidermal growth factor receptor (Homo sapiens), P00533 [L858R,T790M]; details: Compound concentration 1000.0 nM
[20] = biological target: Mitogen-activated protein kinase 15 (Homo sapiens) (UniProt Q8TD08); details: Compound concentration 1000.0 nM
[21] = biological target: Tyrosine-protein kinase Fes/Fps (Homo sapiens) (UniProt P07332); details: Compound concentration 1000.0 nM
[22] = biological target: Homeodomain-interacting protein kinase 3 (Homo sapiens) (UniProt Q9H422); details: Compound concentration 1000.0 nM
[23] = biological target: Serine/threonine-protein kinase ICK (Homo sapiens) (UniProt Q9UPZ9); details: Compound concentration 1000.0 nM
[24] = test system: Mast/stem cell growth factor receptor Kit (Homo sapiens), P10721 [L576P]; details: Compound concentration 1000.0 nM
[25] = biological target: Leukocyte tyrosine kinase receptor (Homo sapiens) (UniProt P29376); details: Compound concentration 1000.0 nM
[26] = biological target: Mitogen-activated protein kinase kinase kinase 1 (Homo sapiens) (UniProt Q13233); details: Compound concentration 1000.0 nM
[27] = biological target: Mitogen-activated protein kinase kinase kinase 14 (Homo sapiens) (UniProt Q99558); details: Compound concentration 1000.0 nM
[28] = biological target: Mitogen-activated protein kinase 11 (Homo sapiens) (UniProt Q15759); details: Compound concentration 1000.0 nM
[29] = biological target: Cyclin-dependent kinase 17 (Homo sapiens) (UniProt Q00537); details: Compound concentration 1000.0 nM
[30] = biological target: Phosphorylase b kinase gamma catalytic chain, skeletal muscle/heart isoform (Homo sapiens) (UniProt Q16816); details: Compound concentration 1000.0 nM
[31] = test system: Phosphatidylinositol 4,5-bisphosphate 3-kinase catalytic subunit alpha isoform (Homo sapiens), P42336 [H1047L]; details: Compound concentration 1000.0 nM
[32] = biological target: 1-phosphatidylinositol 3-phosphate 5-kinase (Homo sapiens) (UniProt Q9Y2I7); details: Compound concentration 1000.0 nM
[33] = biological target: Phosphatidylinositol 5-phosphate 4-kinase type-2 gamma (Homo sapiens) (UniProt Q8TBX8); details: Compound concentration 1000.0 nM
[34] = biological target: Serine/threonine-protein kinase PLK1 (Homo sapiens) (UniProt P53350); details: Compound concentration 1000.0 nM
[35] = biological target: Serine/threonine-protein kinase RIO3 (Homo sapiens) (UniProt O14730); details: Compound concentration 1000.0 nM
[36] = biological target: Serine/threonine-protein kinase SIK2 (Homo sapiens) (UniProt Q9H0K1); details: Compound concentration 1000.0 nM
[37] = biological target: Proto-oncogene tyrosine-protein kinase Src (Homo sapiens) (UniProt P12931); details: Compound concentration 1000.0 nM
[38] = biological target: Serine/threonine-protein kinase tousled-like 2 (Homo sapiens) (UniProt Q86UE8); details: Compound concentration 1000.0 nM
[39] = biological target: Non-receptor tyrosine-protein kinase TNK1 (Homo sapiens) (UniProt Q13470); details: Compound concentration 1000.0 nM
[40] = biological target: Serine/threonine-protein kinase VRK2 (Homo sapiens) (UniProt Q86Y07); details: Compound concentration 1000.0 nM
[41] = biological target: Serine/threonine-protein kinase 32C (Homo sapiens) (UniProt Q86UX6); details: Compound concentration 1000.0 nM
[42] = biological target: Tyrosine-protein kinase Yes (Homo sapiens) (UniProt P07947); details: Compound concentration 1000.0 nM
[43] = biological target: 5-hydroxytryptamine receptor 1E (Homo sapiens) (UniProt P28566); details: Compound concentration 10.0 uM
[44] = biological target: GABA-A receptor; anion channel (Rattus norvegicus) (UniProt O09028+P15431+P18506+P18508+P19969+P20236+P23574+P23576+P28471+P28473+P30191+P62813+P63079+P63138+Q91ZM7+Q9ES14); details: Compound concentration 10.0 uM

Cyclin-dependent kinase 17 (Homo sapiens), sequence (Q00537 whole entry, looked up, canonical isoform): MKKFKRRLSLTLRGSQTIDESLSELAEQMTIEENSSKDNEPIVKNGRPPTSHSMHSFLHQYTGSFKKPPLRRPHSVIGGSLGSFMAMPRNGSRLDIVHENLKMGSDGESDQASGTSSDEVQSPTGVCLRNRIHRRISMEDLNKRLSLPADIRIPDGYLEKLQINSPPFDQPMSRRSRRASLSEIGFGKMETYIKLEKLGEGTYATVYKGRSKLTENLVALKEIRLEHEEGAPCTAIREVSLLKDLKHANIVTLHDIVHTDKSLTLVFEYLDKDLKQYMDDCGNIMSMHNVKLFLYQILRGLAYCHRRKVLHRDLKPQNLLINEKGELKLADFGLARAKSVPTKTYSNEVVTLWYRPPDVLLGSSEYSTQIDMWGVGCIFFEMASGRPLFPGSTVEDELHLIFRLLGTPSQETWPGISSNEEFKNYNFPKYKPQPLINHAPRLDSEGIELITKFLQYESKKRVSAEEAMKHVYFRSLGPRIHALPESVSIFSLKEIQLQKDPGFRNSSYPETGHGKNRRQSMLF
Serine/threonine-protein kinase RIO3 (Homo sapiens), sequence (O14730 whole entry): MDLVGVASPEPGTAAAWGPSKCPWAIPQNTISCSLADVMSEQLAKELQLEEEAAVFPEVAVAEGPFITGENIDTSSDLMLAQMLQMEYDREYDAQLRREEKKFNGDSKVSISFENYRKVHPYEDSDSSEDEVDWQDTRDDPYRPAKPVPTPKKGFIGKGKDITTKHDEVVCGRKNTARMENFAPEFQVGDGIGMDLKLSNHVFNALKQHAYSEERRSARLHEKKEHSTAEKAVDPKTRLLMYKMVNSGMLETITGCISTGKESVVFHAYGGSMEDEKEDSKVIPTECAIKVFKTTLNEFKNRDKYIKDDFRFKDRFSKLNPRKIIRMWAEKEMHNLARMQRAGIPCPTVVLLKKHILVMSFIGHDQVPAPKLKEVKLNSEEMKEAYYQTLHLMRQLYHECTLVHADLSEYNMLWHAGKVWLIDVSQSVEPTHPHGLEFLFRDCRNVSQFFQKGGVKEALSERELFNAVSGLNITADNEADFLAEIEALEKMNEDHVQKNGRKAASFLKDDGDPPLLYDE
Serine/threonine-protein kinase PLK1 (Homo sapiens), sequence (P53350 whole entry): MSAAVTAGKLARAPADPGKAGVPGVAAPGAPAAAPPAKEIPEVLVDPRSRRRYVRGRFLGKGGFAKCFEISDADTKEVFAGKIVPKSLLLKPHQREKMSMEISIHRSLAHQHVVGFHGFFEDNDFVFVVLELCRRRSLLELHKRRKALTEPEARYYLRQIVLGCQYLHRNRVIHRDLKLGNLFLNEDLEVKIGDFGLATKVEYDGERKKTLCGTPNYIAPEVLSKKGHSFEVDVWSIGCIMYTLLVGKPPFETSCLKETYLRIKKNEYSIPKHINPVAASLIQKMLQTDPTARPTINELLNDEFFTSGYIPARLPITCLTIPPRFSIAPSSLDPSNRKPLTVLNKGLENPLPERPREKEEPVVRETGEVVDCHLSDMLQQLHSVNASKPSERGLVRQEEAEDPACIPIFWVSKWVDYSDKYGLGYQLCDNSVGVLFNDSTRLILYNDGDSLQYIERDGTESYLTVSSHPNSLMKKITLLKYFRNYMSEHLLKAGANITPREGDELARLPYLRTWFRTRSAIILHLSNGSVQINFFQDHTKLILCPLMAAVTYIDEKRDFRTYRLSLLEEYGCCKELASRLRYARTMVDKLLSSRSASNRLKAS
Mitogen-activated protein kinase 15 (Homo sapiens), sequence (Q8TD08 whole entry): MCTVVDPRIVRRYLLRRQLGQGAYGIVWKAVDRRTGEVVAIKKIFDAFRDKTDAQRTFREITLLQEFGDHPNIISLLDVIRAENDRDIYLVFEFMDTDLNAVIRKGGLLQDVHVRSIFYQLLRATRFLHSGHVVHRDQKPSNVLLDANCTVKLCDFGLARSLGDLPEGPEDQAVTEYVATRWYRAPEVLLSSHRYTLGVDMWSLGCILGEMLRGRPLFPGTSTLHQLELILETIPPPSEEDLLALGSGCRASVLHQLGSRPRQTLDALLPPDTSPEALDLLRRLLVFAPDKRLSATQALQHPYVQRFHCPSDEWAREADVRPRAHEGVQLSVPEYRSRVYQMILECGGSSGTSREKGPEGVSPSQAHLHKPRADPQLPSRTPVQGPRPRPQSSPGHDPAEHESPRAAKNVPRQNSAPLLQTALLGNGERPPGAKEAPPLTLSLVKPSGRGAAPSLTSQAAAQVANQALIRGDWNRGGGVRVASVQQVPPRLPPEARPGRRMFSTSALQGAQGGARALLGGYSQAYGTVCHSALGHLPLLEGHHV
Tyrosine-protein kinase Fes/Fps (Homo sapiens), sequence (P07332 whole entry): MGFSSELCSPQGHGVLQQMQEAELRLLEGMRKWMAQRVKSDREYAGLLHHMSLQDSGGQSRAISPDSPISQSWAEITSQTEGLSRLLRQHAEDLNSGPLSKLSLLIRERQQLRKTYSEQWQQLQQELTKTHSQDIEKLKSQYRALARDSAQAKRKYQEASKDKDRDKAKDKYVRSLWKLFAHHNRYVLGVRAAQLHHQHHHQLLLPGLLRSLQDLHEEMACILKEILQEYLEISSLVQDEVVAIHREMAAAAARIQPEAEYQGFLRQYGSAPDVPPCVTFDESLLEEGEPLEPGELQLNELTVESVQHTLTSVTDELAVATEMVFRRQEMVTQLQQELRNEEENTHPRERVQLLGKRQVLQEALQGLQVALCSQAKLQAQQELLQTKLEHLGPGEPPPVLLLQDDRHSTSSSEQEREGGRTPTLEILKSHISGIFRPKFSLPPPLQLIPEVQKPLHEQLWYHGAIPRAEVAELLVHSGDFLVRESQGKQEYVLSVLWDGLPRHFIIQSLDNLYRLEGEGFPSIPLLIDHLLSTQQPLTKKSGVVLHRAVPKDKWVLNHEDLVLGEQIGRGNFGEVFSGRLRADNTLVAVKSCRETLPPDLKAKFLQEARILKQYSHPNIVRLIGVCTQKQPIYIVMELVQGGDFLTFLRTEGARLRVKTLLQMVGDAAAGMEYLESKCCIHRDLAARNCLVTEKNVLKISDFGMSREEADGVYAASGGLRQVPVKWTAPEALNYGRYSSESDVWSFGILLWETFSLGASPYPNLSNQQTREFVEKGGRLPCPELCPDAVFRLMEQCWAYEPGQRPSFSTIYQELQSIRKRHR
Cyclin-dependent kinase 5 (Homo sapiens), sequence (Q00535 whole entry, looked up): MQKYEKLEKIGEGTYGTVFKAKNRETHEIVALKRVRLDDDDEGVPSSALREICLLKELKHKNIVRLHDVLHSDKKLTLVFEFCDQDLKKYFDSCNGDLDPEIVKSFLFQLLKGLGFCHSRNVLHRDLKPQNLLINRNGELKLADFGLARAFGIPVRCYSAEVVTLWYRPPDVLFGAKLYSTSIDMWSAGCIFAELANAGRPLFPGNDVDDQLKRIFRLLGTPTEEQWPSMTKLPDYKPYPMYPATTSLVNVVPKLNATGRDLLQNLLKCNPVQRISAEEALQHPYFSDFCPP
Activin receptor type-2A (Homo sapiens), sequence (P27037 whole entry): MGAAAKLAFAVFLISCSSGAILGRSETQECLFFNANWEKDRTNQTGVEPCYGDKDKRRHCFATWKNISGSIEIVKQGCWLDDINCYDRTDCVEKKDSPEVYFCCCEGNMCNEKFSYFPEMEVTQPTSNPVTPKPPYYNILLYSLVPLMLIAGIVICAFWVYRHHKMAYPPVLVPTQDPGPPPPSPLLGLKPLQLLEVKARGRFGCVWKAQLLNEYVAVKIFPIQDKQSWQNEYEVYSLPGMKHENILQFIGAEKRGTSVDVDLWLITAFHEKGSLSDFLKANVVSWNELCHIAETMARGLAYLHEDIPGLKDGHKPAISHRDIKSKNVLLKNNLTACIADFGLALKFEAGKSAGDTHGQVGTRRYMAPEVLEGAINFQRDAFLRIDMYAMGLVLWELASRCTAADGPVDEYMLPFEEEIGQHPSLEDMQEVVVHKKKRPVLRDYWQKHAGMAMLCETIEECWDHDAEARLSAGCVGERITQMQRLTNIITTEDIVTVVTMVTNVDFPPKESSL
Tyrosine-protein kinase Yes (Homo sapiens), sequence (P07947 2-543 limits assumed): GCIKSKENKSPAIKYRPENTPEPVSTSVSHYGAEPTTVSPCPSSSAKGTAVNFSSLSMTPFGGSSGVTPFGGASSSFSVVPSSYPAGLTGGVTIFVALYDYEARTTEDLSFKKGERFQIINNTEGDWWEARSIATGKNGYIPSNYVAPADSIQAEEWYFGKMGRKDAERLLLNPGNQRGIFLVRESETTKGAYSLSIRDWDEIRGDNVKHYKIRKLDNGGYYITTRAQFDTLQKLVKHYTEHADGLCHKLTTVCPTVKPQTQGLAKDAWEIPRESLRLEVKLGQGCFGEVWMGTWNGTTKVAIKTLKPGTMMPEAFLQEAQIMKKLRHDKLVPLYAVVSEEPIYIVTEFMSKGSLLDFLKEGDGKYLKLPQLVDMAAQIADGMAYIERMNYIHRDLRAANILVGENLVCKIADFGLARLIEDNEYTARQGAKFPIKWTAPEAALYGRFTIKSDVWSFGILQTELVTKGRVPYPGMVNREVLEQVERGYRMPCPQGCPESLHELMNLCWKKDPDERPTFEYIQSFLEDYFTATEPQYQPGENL
Serine/threonine-protein kinase 32C (Homo sapiens), sequence (Q86UX6 whole entry): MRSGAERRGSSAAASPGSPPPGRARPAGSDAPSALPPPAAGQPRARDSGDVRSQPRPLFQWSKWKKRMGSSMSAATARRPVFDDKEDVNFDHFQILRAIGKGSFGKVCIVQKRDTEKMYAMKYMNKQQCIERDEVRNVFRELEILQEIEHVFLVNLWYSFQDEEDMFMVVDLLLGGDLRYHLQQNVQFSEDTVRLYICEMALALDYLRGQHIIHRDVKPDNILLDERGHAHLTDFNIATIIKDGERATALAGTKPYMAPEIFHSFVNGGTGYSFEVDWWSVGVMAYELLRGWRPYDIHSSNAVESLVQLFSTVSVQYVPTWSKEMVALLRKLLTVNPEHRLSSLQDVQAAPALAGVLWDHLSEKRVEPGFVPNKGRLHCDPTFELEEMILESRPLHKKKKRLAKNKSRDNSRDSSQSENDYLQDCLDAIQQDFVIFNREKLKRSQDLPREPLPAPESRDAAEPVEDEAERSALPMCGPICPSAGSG

O=C(O)[C@@H]1[C@@H](Cn2nnc3ccccc3c2=O)CC[C@H]1C(=O)c1ccc(OCCC2CCOCC2)cc1 [BAY-694]
inactive: residual activity [1] 84% | residual activity [2] 96% | residual activity [3] 100% | residual activity [4] 100% | residual activity [5] 100% | residual activity [6] 100% | residual activity [7] 100% | residual activity [8] 100% | residual activity [9] 81% | residual activity [10] 100% | residual activity [11] 94% | residual activity [12] 100% | residual activity [13] 95% | residual activity [14] 100% | residual activity [15] 87% | residual activity [16] 98% | residual activity [17] 99% | residual activity [18] 94% | residual activity [19] 76% | residual activity [20] 100% | residual activity [21] 100% | residual activity [22] 100% | residual activity [23] 97% | residual activity [24] 100% | residual activity [25] 100% | residual activity [26] 100% | residual activity [27] 100% | residual activity [28] 99% | residual activity [29] 88% | residual activity [30] 100% | residual activity [31] 84% | residual activity [32] 87% | residual activity [33] 89% | residual activity [34] 80% | residual activity [35] 100% | residual activity [36] 91% | residual activity [37] 89% | residual activity [38] 93% | residual activity [39] 100% | residual activity [40] 80% | residual activity [41] 100% | residual activity [42] 100% | inhibition [43] 3.94% | inhibition [44] 10.2%

O=C(O)[C@H]1[C@H](Cn2nnc3ccccc3c2=O)CC[C@@H]1C(=O)c1ccc(OCCC2CCOCC2)cc1 [BAY-7598]
inactive: residual activity [1] 75% | residual activity [2] 98% | residual activity [3] 87% | residual activity [4] 79% | residual activity [5] 100% | residual activity [6] 100% | residual activity [7] 100% | residual activity [8] 100% | residual activity [9] 100% | residual activity [10] 72% | residual activity [11] 100% | residual activity [12] 100% | residual activity [13] 83% | residual activity [14] 89% | residual activity [15] 79% | residual activity [16] 97% | residual activity [17] 100% | residual activity [18] 85% | residual activity [19] 64% | residual activity [20] 100% | residual activity [21] 100% | residual activity [22] 99% | residual activity [23] 98% | residual activity [24] 96% | residual activity [25] 100% | residual activity [26] 100% | residual activity [27] 85% | residual activity [28] 78% | residual activity [29] 74% | residual activity [30] 74% | residual activity [31] 71% | residual activity [32] 72% | residual activity [33] 100% | residual activity [34] 75% | residual activity [35] 79% | residual activity [36] 100% | residual activity [37] 89% | residual activity [38] 98% | residual activity [39] 100% | residual activity [40] 80% | residual activity [41] 89% | residual activity [42] 100% | inhibition [43] 7.37% | inhibition [44] 7.4%
